Values after ≈ are worked out from the molar mass of the structure shown.

Usually IC50 stands for the concentration that inhibits the measured activity by half. By MIC is commonly meant the lowest concentration found to suppress growth. Read a high MIC as a need for much substance.

Test [1] has as its target A. baumannii FabI (Acinetobacter baumannii, UniProt D0CAD5). Nature of the test: Inhibition of FabI enzyme (NADH consumption rate). To be noted: recombinant FabI, 30° C., pH 7.25. The test is classed as biochemical. As to the method: Inhibition of Fabl enzyme from Acinetobacter baumannii and Escherichia coli was tested by measuring the rate of NADH consumption (Aabsorbance at 340 nm/min) at 30° C. in 96-well plate format using an automated plate reader in the presence or absence of the test compounds. The assay mixture contained 100 mM Tris-HCl, pH 7.25 (A. baumannii) or 7.5 (E. coli), 100 mM ammonium acetate, 0.02% (A. baumannii) or 0.05% (E. coli) Pluronic F-68, 25 μM crotonyl ACP, 50 μM NADH, […] recombinant Fabl protein, and 7.5% DMSO. Test compounds were added at concentrations ranging from 0.17 to 10,000 nM in a final well volume of 100 μl. This dose-response inhibitory assay was performed using a 10-point, serial dilution series for each test compound. IC50 values for each test compound were assigned from logistical sigmoid curve-fitting of the inhibition dose response curves.

The test system of test [2] is S. aureus ATCC 29213. Nature of the test: Broth microdilution MIC assay. Type of test: cell-based. To be noted: Staphylococcus aureus, ATCC29213; CA-MHB, 1% DMSO, 35° C., 20 hours. As to the method: (§1) The antibacterial activity of Fabl inhibitors against select Gram-negative and Gram-positive bacterial species including susceptible and multi-drug resistant A. baumannii, E. coli, K. pneumoniae and S. aureus was tested using the broth microdilution Minimal Inhibitory Concentration (MIC) assay following CLSI guidelines for insoluble compounds. Test articles were serially diluted 2-fold in 100% dimethyl sulfoxide (DMSO) and then diluted 100-fold into cation adjusted Mueller-Hinton broth (CA-MHB) to achieve a 10-point test concentration range in 1% DMSO. Final compound concentrations were 0.016-8 μg/ml for S. aureus or 0.06-32 μg/ml for the Gram-negative species. MIC test plates were then prepared by transferring 100 μl of the final assay medium (test article in CA-MHB, 1% DMSO) into the appropriate wells of a sterile, low binding 96-well polystyrene plate. Direct colony suspension inoculums of the test strains were freshly prepared per CLSI guidelines, and the appropriate test wells were inoculated to achieve a final bacterial cell density of 5×10^5 CFU/ml. Growth control (no test article) and negative control (no bacterial inoculum) wells were also included. Exposure to light was minimized during all stages of assay preparation. MIC test plates were incubated at 35° C. for 20 hours. Bacterial growth was then determined by measuring the optical density at 600 nm (OD600) using a SpectraMax Plus plate-reader spectrophotometer.

The test system of test [3] is A. baumannii ATCC BAA1605. Nature of the test: Broth microdilution MIC assay. The test is classed as cell-based. To be noted: Acinetobacter baumannii, ATCCBAA1605; CA-MHB, 1% DMSO, 35° C., 20 hours. As to the method: as §1
Test [4] relates to E. coli AG100. Nature of the test: Broth microdilution MIC assay. As to conditions: Escherichia coli, CA-MHB, 1% DMSO, 35° C., 20 hours. Type of test: cell-based. As to the method:
as §1
Background: Broth dilution looks for growth in wells or tubes with falling amounts of substance.

The test system of test [5] is K. pneumoniae A6030827. Nature of the test: Broth microdilution MIC assay. To be noted: Klebsiella pneumoniae, CA-MHB, 1% DMSO, 35° C., 20 hours. Type of test: cell-based. As to the method: as §1

A. baumannii FabI, sequence (D0CAD5 1-288): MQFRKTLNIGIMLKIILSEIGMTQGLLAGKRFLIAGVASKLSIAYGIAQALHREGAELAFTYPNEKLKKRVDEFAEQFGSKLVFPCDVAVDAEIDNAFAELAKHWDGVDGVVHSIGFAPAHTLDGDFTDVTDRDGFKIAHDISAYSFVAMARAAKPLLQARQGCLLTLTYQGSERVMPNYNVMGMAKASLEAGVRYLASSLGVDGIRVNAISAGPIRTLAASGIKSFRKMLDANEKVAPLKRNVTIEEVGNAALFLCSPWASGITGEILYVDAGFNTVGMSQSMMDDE

For the molecule `Cc1oc2ccccc2c1CN(C)C(=O)/C=C/c1cnc2c(c1)CCC(N1CCCC1)C(=O)N2` (single isomer, unassigned) [Compound 25, (S*,E)-N-methyl-N-((2-methylbenzofuran-3-yl)methyl)-3-(8-oxo-7-(pyrrolidin-1-yl)-6,7,8,9-tetrahydro-5H-pyrido[2,3-b]azepin-3-yl)acrylamide], in test [1], the IC50 is under 10 nM. In addition, the results for the MIC in test [2], in test [3] and in test [4] were at most 4 µg/mL, at most 4 µg/mL and 8 µg/mL (≈ 17.4 µM), respectively.

On to `Cc1oc2ccccc2c1CN(C)C(=O)/C=C/c1cnc2c(c1)CCC(N1CC[C@@H](O)C1)C(=O)N2` (single isomer, unassigned) [Compound 28, (E)-3-((R*)-7-((R)-3-hydroxypyrrolidin-1-yl)-8-oxo-6,7,8,9-tetrahydro-5H-pyrido[2,3-b]azepin-3-yl)-N-methyl-N-((2-methylbenzofuran-3-yl)methyl)acrylamide], for which the IC50 in test [1] was under 10 nM.

Take `Cc1oc2ccccc2c1CN(C)C(=O)/C=C/c1cnc2c(c1)CCC(C)(N)C(=O)N2` (single isomer, unassigned) [Compound 39, (S*,E)-3-(7-amino-7-methyl-8-oxo-6,7,8,9-tetrahydro-5H-pyrido[2,3-b]azepin-3-yl)-N-methyl-N-((2-methylbenzofuran-3-yl)methyl)acrylamide]: in test [1], the IC50 was under 10 nM. Moreover, the MIC in test [2], in test [3] and in test [4] was at most 4 µg/mL throughout.

Turning to `Cc1oc2ccccc2c1CN(C)C(=O)/C=C/c1cnc2c(c1)CCC(N1CC[C@@H](O)C1)C(=O)N2` (stereo in doubt) [Compound 28, (E)-3-((R*)-7-((R)-3-hydroxypyrrolidin-1-yl)-8-oxo-6,7,8,9-tetrahydro-5H-pyrido[2,3-b]azepin-3-yl)-N-methyl-N-((2-methylbenzofuran-3-yl)methyl)acrylamide], the MIC was at most 4 µg/mL in test [2], at most 4 µg/mL in test [3] and 8 µg/mL (≈ 16.9 µM) in test [4].

Regarding `CNC1CCc2cc(/C=C/C(=O)N(C)Cc3c(C)oc4ccccc34)cnc2NC1=O` (centres unmarked) [Compound 11, (E)-N-methyl-3-(7-(methylamino)-8-oxo-6,7,8,9-tetrahydro-5H-pyrido[2,3-b]azepin-3-yl)-N-((2-methylbenzofuran-3-yl)methyl)acrylamide], the IC50 in test [1] is under 10 nM. Moreover, the minimum inhibitory concentration (MIC) in test [2] is at most 4 µg/mL; in test [5], 8 µg/mL (≈ 19.1 µM); in test [3], 8 µg/mL (≈ 19.1 µM); in test [4], 8 µg/mL (≈ 19.1 µM).

As to `Cc1oc2ccccc2c1CN(C)C(=O)/C=C/c1cnc2c(c1)CCC(N(C)C)C(=O)N2` (centres unmarked) [Compound 13, (E)-3-[7-(dimethylamino)-8-oxo-5,6,7,9-tetrahydropyrido[2,3-b]azepin-3-yl]-N-methyl-N-[(2-methylbenzofuran-3-yl)methyl]prop-2-enamide], the IC50 in test [1] was under 10 nM. The MIC is at most 4 µg/mL in test [2], 8 µg/mL (≈ 18.5 µM) in test [5], at most 4 µg/mL in test [3] and 16 µg/mL (≈ 37 µM) in test [4].

Turning to `Cc1oc2ccccc2c1CN(C)C(=O)/C=C/c1cnc2c(c1)CCC(N1CCCC1)C(=O)N2` (centres unmarked) [Compound 15, (E)-N-methyl-N-[(2-methylbenzofuran-3-yl)methyl]-3-(8-oxo-7-pyrrolidin-1-yl-5,6,7,9-tetrahydropyrido[2,3-b]azepin-3-yl)prop-2-enamide], the IC50 in test [1] is under 10 nM. Moreover, the MIC in test [2] was at most 4 µg/mL; in test [5] it was 16 µg/mL (≈ 34.9 µM); in test [3], at most 4 µg/mL; in test [4], 16 µg/mL (≈ 34.9 µM).

For `Cc1oc2ccccc2c1CN(C)C(=O)/C=C/c1cnc2c(c1)N[C@H](C)[C@H](N)C(=O)N2` [Compound 23, (E)-3-((2R,3S)-3-amino-2-methyl-4-oxo-2,3,4,5-tetrahydro-1H-pyrido[2,3-b][1,4]diazepin-8-yl)-N-methyl-N-((2-methylbenzofuran-3-yl)methyl)acrylamide], the IC50 in test [1] was under 10 nM. Besides, the MIC in test [2] was at most 4 µg/mL; in test [5], 8 µg/mL (≈ 19.1 µM); in test [3] it was at most 4 µg/mL; in test [4], 8 µg/mL (≈ 19.1 µM).

Source of the values: patent US20240317740A1, “NOVEL COMPOUNDS AND THEIR USE” (Debiopharm International S.A., priority 2021, published 2024).
